Results as given in patent US20170088520A1, “DEUBIQUITINASE INHIBITORS” (PharmAkea, Inc., priority 2014, published 2017).

Key:
Format in all cases: cell-based
[1] = target: T1, DUB activity in cells (NCI-H929, Z138, MM.1S, A375) (Homo sapiens, UniProt Q93008); test: HA-Ubiquitin-Vinylsulfone (HA-Ub-VS) cell labeling assay; conditions: compound tested at 5 μM; HA-Ub-VS labeling of USP9x in cells
T1 construct: endogenous in cells; host or cells: NCI-H929, Z138, MM.1S, A375
Protocol: Example B-1: HA-Ubiqutin-Vinylsulfone (HA-Ub-VS) Cell Labeling
Inhibitition of DUB activity is measured in cells (NCI-H929, Z138, MM.1S, A375) using a hemaglutinin-ubiquitin-vinylsulfone (HA-Ub-VS) labeling assay. Briefly, 1-2×10^6 cells are plated in 12-well plates in 1 ml complete growth media and 250 μl of test compound in 0.5% dimethylsulfoxide (or DMSO control) is added to each well. Plates are incubated at 37° C., 5% CO2 for 2-6 hours before cells are harvested into eppendorf tubes, washed once in PBS and resuspended in 100 μl cold lysis buffer (50 mM Tris pH 8, 150 mM NaCl, 0.5% NP-40, 2 mM phenylmethylsulfonyl fluoride and complete protease inhibitor tablet). Resupended cells are frozen on dry ice, then thawed and incubated on ice for 15 minutes. Tubes are centrifuged for 10 minutes at 14,000 rpm at 4° C. and the cleared supernatants transferred to clean tubes. […] The samples are incubated 15-60 min at 37° C. before the addition of SDS gel loading buffer. Proteins are separated by SDS-PAGE, transferred to nitrocellulose and the blot probed with anti-HA antibody and anti-β-actin antibodies. The HA and β-actin antibodies are detected using secondary antibodies coupled to IRdye 800 or IRdye 680 and visualized and quantitated using the LiCor Odyssey machine.
(§1) The following compounds were tested in the above assays at 5 μM: […]

[2] = tested on: Mcl-1 expression in cells (NCI-H929, Z138, MM.1S, A-375); test: Analysis of Mcl-1 expression by Western blotting; conditions: compound tested at 5 μM; Western blot
Protocol: (§2) Example B-2: Analysis of Md-1 Expression and PARP Cleavage
(§3) The ability of test compounds to decrease expression of the tumor promoting protein, Mcl-1, and to induce the inactivation/cleavage of the PARP protein is evaluated in cells (NCI-H929, Z138, MM.1S, A-375) by Western blotting. Cells are plated and treated as described in the HA-Ub-VS cell labeling assay (see above). A portion of the cleared lysate (15-50 μl) is run on an SDS-polyacrylamide gel to separate proteins and then transferred to nitrocellulose. After transfer to nitrocellulose, the proteins are detected by probing the blot with anti-Mcl-1 and anti-PARP antibodies followed by secondary antibodies coupled to IRdye 800 and IRdye 680 and visualization and quantitation using a LiCor Odyssey machine. Activity of the test compound is identified as a significant decrease in Mcl-1 expression relative to the vehicle treated cells and to the appearance of a cleaved fragment of PARP relative to the vehicle-treated cells.
as §1

[3] = tested on: PARP cleavage in cells (NCI-H929, Z138, MM.1S, A-375); test: Analysis of PARP cleavage by Western blotting; conditions: compound tested at 5 μM; Western blot
Protocol: as §2, §3, §1

T1 sequence (Q93008 whole entry): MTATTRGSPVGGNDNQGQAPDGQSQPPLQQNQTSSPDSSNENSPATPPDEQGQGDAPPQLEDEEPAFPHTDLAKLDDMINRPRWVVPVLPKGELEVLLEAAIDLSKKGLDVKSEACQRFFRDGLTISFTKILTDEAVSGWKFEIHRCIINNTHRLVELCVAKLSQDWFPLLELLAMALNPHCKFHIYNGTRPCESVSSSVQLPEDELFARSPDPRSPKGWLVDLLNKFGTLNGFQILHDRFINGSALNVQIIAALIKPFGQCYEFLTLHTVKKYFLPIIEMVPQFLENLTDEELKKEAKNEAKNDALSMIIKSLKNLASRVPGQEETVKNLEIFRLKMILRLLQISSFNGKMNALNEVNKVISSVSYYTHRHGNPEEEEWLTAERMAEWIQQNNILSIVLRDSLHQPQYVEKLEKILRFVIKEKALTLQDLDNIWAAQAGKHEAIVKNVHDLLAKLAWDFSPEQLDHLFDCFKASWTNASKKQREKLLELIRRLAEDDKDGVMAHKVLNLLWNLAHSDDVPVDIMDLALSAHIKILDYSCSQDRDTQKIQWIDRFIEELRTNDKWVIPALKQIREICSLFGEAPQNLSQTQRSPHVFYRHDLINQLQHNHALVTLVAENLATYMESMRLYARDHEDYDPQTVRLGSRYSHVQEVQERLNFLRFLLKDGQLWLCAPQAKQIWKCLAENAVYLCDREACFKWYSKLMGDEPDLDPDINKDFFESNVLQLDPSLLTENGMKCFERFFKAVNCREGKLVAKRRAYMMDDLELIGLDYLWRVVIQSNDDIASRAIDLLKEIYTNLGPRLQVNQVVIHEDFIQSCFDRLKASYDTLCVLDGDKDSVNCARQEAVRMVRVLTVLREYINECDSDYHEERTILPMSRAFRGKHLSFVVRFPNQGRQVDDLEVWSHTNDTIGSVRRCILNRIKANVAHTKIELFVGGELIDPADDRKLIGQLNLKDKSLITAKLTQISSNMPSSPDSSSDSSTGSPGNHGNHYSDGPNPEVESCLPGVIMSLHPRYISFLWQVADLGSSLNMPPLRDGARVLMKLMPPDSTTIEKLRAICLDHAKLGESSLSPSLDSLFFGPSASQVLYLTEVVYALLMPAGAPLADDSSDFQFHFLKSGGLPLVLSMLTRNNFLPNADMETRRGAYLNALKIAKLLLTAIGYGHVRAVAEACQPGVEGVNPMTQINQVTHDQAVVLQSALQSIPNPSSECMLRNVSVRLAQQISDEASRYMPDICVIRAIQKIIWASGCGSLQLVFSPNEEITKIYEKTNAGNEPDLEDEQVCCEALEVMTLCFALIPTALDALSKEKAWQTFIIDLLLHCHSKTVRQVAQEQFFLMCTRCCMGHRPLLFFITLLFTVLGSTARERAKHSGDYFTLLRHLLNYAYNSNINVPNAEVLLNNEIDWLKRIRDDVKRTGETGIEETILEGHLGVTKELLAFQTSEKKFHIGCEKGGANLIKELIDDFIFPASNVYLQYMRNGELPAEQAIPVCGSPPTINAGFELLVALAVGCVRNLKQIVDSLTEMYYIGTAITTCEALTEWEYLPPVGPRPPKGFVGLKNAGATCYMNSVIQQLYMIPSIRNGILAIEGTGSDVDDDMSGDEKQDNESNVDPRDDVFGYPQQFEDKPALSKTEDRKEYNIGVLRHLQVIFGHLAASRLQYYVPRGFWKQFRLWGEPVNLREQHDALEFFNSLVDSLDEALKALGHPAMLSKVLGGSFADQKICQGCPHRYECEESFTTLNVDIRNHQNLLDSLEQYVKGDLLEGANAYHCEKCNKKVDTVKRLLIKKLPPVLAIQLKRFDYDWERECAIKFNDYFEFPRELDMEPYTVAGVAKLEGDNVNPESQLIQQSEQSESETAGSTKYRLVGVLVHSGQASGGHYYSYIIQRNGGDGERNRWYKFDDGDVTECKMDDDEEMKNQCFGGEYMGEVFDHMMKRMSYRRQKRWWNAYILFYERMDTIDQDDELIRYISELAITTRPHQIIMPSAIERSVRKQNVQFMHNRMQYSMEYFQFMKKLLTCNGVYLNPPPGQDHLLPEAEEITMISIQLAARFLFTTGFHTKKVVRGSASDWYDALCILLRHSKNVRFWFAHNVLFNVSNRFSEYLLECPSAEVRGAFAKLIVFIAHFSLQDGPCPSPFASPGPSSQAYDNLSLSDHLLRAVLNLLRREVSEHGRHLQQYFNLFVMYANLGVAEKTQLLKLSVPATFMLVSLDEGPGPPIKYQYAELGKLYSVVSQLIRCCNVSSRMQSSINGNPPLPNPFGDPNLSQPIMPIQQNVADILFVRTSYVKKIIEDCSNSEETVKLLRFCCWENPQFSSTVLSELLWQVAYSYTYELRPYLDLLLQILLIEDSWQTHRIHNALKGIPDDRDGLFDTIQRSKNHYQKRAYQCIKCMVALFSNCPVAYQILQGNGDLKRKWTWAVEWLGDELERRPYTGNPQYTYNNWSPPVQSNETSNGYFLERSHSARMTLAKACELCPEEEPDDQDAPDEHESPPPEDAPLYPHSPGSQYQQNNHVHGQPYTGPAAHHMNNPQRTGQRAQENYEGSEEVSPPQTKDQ

Compound	inhibition at 5 µM [1] [%]	inhibition at 5 µM [2] [%]	PARP cleavage % Inhibition [3]
N#C/C(=C\c1ncc(Br)cc1Br)C(=O)NC1(c2ccc(F)cc2)CCCC1 [Compound 21, (E)-2-Cyano-3-(3,5-dibromopyridin-2-yl)-N-(1-(4-fluorophenyl)cyclopentyl)acrylamide]	≥ 75	≥ 75	A (A is ≧75% inhibition)
CCOC(=O)c1ccc(-c2ccc(C3(NC(=O)/C(C#N)=C/c4ncc(Br)cc4Br)CCCC3)cc2)cc1 [Compound 32, (E)-ethyl 4′-(1-(2-cyano-3-(3,5-dibromopyridin-2-yl)acrylamido)cyclopentyl)-[1,1′-biphenyl]-4-carboxylate]	< 25	< 25	D (D is <25% inhibition)
N#C/C(=C\c1ncc(Br)cc1Br)C(=O)NC1(c2ccccc2)CCCCC1 [Compound 23, (E)-2-Cyano-3-(3,5-dibromopyridin-2-yl)-N-(1-phenylcyclohexyl)acrylamide]	≥ 75	≥ 75	A (A is ≧75% inhibition)
CC(C)(C)OC(=O)c1cccc(-c2cccc(/C=C(\C#N)C(=O)NC3(c4ccccc4)CCCC3)n2)c1 [Compound 56, (E)-tert-butyl 3-(6-(2-cyano-3-oxo-3-((1-phenylcyclopentyl)amino)prop-1-en-1-yl)pyridin-2-yl)benzoate]	50 to 75	≥ 75	A (A is ≧75% inhibition)
N#C/C(=C\c1cccc(Br)n1)C(=O)NC1(c2ccc(COC(=O)CCCCCN3C(=O)C=CC3=O)cc2)CCCC1 [Compound 85, (E)-4-(1-(3-(6-bromopyridin-2-yl)-2-cyanoacrylamido)cyclopentyl)benzyl 6-(2,5-dioxo-2,5-dihydro-1H-pyrrol-1-yl)hexanoate]	25 to 50	< 25	C (C is 25% to 50% inhibition)
N#C/C(=C\c1cccc(-c2ccc(OCC(=O)O)cc2)n1)C(=O)NC1(c2ccccc2)CCCC1 [Compound 36]	< 25	< 25	D (D is <25% inhibition)
CCOC(=O)c1cccc(-c2cccc(/C=C(\C#N)C(=O)NC3(c4ccccc4)CCCC3)n2)c1F [Compound 60]	50 to 75	≥ 75	A (A is ≧75% inhibition)
Cc1cccc(C2(NC(=O)/C(C#N)=C/c3ncc(Br)cc3Br)CCCC2)c1 [Compound 26, (E)-2-cyano-3-(3,5-dibromopyridin-2-yl)-N-(1-(m-tolyl)cyclopentyl)acrylamide]	≥ 75	≥ 75	A (A is ≧75% inhibition)
CN(C)C(=O)c1ccc(C2(NC(=O)/C(C#N)=C/c3ncc(Br)cc3Br)CCCC2)cc1 [Compound 66, (E)-4-(1-(2-cyano-3-(3,5-dibromopyridin-2-yl)acrylamido)cyclopentyl)-N,N-dimethylbenzamide]	50 to 75	≥ 75	A (A is ≧75% inhibition)

More lines, main results first:

inhibition at 5 µM [1] [%]	Compound	inhibition at 5 µM [2] [%]	PARP cleavage % Inhibition [3]
< 25	N#C/C(=C\c1cccc(N2CCCC2)n1)C(=O)NC1(c2ccccc2)CCCC1 [Compound 83, (E)-2-cyano-N-(1-phenylcyclopentyl)-3-(6-(pyrrolidin-1-yl)pyridin-2-yl) acrylamide]	< 25	D (D is <25% inhibition)
≥ 75	N#C/C(=C\c1cccc(Br)n1)C(=O)NC1(c2ccc(Br)cc2)CCCC1 [Compound 15, (E)-N-(1-(4-bromophenyl)cyclopentyl)-3-(6-bromopyridin-2-yl)-2-cyanoacrylamide]	≥ 75	A (A is ≧75% inhibition)
25 to 50	N#C/C(=C\c1cccc(-c2cccnc2)n1)C(=O)NC1(c2ccccc2)CCCC1 [Compound 30, (E)-3-([2,3′-bipyridin]-6-yl)-2-cyano-N-(1-phenylcyclopentyl)acrylamide]	25 to 50	A (A is ≧75% inhibition)
< 25	N#C/C(=C\c1cccc(-c2cnc3[nH]ccc3c2)n1)C(=O)NC1(c2ccccc2)CCCC1 [Compound 61, (E)-3-(6-(1H-pyrrolo[2,3-b]pyridin-5-yl)pyridin-2-yl)-2-cyano-N-(1-phenylcyclopentyl)acrylamide]	< 25	B (B is 50% to 75% inhibition)
25 to 50	N#C/C(=C\c1cccc(Br)n1)C(=O)NC1(c2ccc(-c3ccc(C(=O)O)cc3)cc2)CCCC1 [Compound 91, (E)-4′-(1-(3-(6-bromopyridin-2-yl)-2-cyanoacrylamido)cyclopentyl)-[1,1′-biphenyl]-4-carboxylic acid]	≥ 75	A (A is ≧75% inhibition)
< 25	N#C/C(=C\c1ccc(O)cc1)C(=O)NC1(c2ccccc2)CCCC1 [Compound 13, (E)-3-(4-Hydroxyphenyl)-2-cyano-N-(1-phenylcyclopentyl)acrylamide]	< 25	D (D is <25% inhibition)
50 to 75	N#C/C(=C\c1cccc(-c2ccc3[nH]ncc3c2)n1)C(=O)NC1(c2ccccc2)CCCC1 [Compound 70, (E)-3-(6-(1H-indazol-5-yl)pyridin-2-yl)-2-cyano-N-(1-phenylcyclopentyl) acrylamide]	≥ 75	A (A is ≧75% inhibition)
< 25	N#C/C(=C\c1cccc(C#CC2(O)CCCC2)n1)C(=O)NC1(c2ccncc2)CCCC1 [Compound 3-5]	< 25	D (D is <25% inhibition)
25 to 50	N#C/C(=C\c1cccc(C#CCN2CCOCC2)n1)C(=O)NC1(c2ccccc2)CCCC1 [Compound 55, (E)-2-cyano-3-(6-(3-morpholinoprop-1-yn-1-yl)pyridin-2-yl)-N-(1-phenylcyclopentyl)acrylamide]	< 25	A (A is ≧75% inhibition)
50 to 75	N#C/C(=C\c1cccc(Br)n1)C(=O)NC1(c2ccnc(Cl)c2)CCCC1 [Compound 3-6, (E)-3-(6-bromopyridin-2-yl)-N-(1-(2-chloropyridin-4-yl)cyclopentyl)-2-cyanoacrylamide]	50 to 75	A (A is ≧75% inhibition)
25 to 50	N#C/C(=C\c1cccc(C2CC2)n1)C(=O)NC1(c2ccc(-c3ccc(CC(=O)O)cc3)cc2)CCCC1 [Compound 93, (E)-2-(4′-(1-(2-cyano-3-(6-cyclopropylpyridin-2-yl)acrylamido)cyclopentyl)-[1,1′-biphenyl]-4-yl)acetic acid]	≥ 75	A (A is ≧75% inhibition)
< 25	N#C/C(=C\c1cccc(Br)n1)C(=O)NC1(c2cccnc2)CCCC1 [Compound 3-1, (E)-3-(6-bromopyridin-2-yl)-2-cyano-N-(1-(pyridin-3-yl)cyclopentyl) acrylamide]	< 25	B (B is 50% to 75% inhibition)
